Patent US20240002429A1, “PRODRUG OF 5a-HYDROXY-6ß-[2-(1H-IMIDAZOL-4-YL)ETHYLAMINO]CHOLESTAN-3ß-OL AND PHARMACEUTICAL COMPOSITIONS COMPRISING SAME FOR USE IN THE TREATMENT OF CANCER” (priority 2020, published 2024)

Molecular target: T1, cholesterol epoxide hydrolase (ChEH) (Homo sapiens, UniProt Q15125)
T1 construct: endogenous in cells; host or cells: MCF-7
Assay: Activity of cholesterol epoxide hydrolase (ChEH) in MCF-7 cells, [14C]5,6α-EC metabolization by TLC
Assay type: cell-based
Conditions: MCF-7, 1 μM, 24 h, [14C]5,6α-EC 0.6 μM
Text: The compounds 5,6α-epoxycholesterol (5,6α-EC) and 5,6β-epoxycholesterol (5,6β-EC) are oxysterols involved in the anticancer pharmacology of tamoxifen, a widely used antitumor drug. They are both metabolized in cholestan-3β,5α,6β-triol (CT) by the enzyme cholesterol-5,6-epoxide hydrolase (ChEH), and CT is metabolized by the enzyme HSD11B2 (11β-hydroxysteroid dehydrogenase 2) to 6-oxo-cholestan-3β,5α-diol (OCDO), an oncosterone tumor promoter.
MCF-7 cells are in a cell culture medium identical to example 20 and are seeded in 6-well plates at 150000 cells per well with 3 wells per treatment condition. 24 h after seeding, the MCF-7 cells are treated with [^14C]5,6α-EC (stock solution 1000×: 0.6 mM; 20 μCi/μmol; final concentration 0.6 μM) alone or in combination with tamoxifen (tam). Tamoxifen is used as positive control of the study compounds. The treatment with the compound according to the invention is carried out at a concentration of 1 μM.
After 24 hours of treatment, the media are collected and lipid extracts are prepared from the cell pellets by extraction with 100 μL of chloroform, 400 μL of methanol and 300 μL of water. The lipid extracts are analyzed by thin-layer chromatography (TLC) using ethyl acetate (EtOAc) as eluent. The analysis is carried out using a plate reader and then by autoradiography.

T1 sequence (Q15125 whole entry): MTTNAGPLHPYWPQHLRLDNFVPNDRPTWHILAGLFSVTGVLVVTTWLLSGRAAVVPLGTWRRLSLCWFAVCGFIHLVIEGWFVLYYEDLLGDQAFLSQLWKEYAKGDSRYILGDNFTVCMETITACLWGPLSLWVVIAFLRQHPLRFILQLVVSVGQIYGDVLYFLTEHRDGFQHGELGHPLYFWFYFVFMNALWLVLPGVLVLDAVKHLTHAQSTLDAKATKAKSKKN

## CC/C(=C(\c1ccccc1)c1ccc(OCCN(C)C)cc1)c1ccccc1 [tamoxifen]
  inhibition of ChEH activity: total inhibition
